The test system of one data set is A. baumannii 6043. The experiment in a line: microbe, parasite or virus in culture. Type of data set: cell-based, Acinetobacter baumannii. Particulars: A. baumannii 6043; 24-h incubation; mean of 3 replicates from 2 independent experiments. As to the method:
(§1) Strains were obtained from American Type Culture Collection (ATCC, Manassas, VA) or the clinical isolate collection at Trideum Biosciences (Frederick, MD, USA). Bioluminescence strains of P. aeruginosa 19660, transfected with the Xen5 luciferase gene, and S. aureus ATCC® 49525™ (Wright), transfected with the Xen36 luciferase gene, were obtained from Perkin Elmer (Hopkinton, MA).
(§2) A single colony was aseptically picked from an agar overlay and released in 25–30 mL of pre-warmed trypticase soy broth in a culture flask. Each culture was incubated overnight in a 37°C incubator. […] Pathogen growth was measured by absorbance at 600 nm. Four replicas were included for each test agent concentration. […]

Another data set concerns A. baumannii 6838. Kind of data set: microbe, parasite or virus in culture. Type of data set: cell-based, Acinetobacter baumannii. The note with it: 6838, 24 h. As to the method: as §1, §2
The next data set concerns A. baumannii ATCC 17978. Kind of data set: microbe, parasite or virus in culture. Particulars: A. baumannii ATCC 17978; 24-h incubation; mean of 3 replicates from 2 independent experiments. It is filed as cell-based, Acinetobacter baumannii. The procedure: as §1, §2
A further data set deals with P. aeruginosa 6186. Kind of data set: microbe, parasite or virus in culture. Type of data set: cell-based, Pseudomonas aeruginosa. Particulars: 6186, 24 h. The procedure:
as §1, §2

In another data set the test system is P. aeruginosa ATCC 19660. The experiment in a line: microbe, parasite or virus in culture. It is filed as cell-based, Pseudomonas aeruginosa. The note with it: P. aeruginosa ATCC 19660; 24-h incubation; mean of 3 replicates from 2 independent experiments. The procedure:
as §1, §2

Another data set deals with P. aeruginosa ATCC 27853. The experiment in a line: microbe, parasite or virus in culture. It is filed as cell-based, Pseudomonas aeruginosa. Particulars: P. aeruginosa ATCC 27853; 24-h incubation; mean of 3 replicates from 2 independent experiments. As to the method:
as §1, §2

The test system of data set [1] is human HaCaT keratinocytes. Type of data set: cell-based. The note with it: 256 μg/mL. As to the method: Non-invasive real-time evaluation of viability, mammalian, and bacterial cells, was performed using bioluminescent human keratinocytes (HaCaT, AddexBio, San Diego, CA) and murine L929 fibroblast cells (ATCC, Manassas, VA). The bioluminescent variants were constructed by transfection with a luciferase gene (RediFect Red-Fluc-Puromycin, Catalog #CL596002) (Hamblin et al., [2003]). […] Each concentration was performed in triplicate. Bioluminescence imaging was performed at pre-specified times (0, 15, and 30 min and 1, 3, 5, 8, and 24 h) and compared to concurrently run vehicle-controls. The 96-well plate was positioned on the stage (12.5-cm field of view) within the in vivo Imaging System (IVIS) imaging system (Caliper Life Sciences, Inc., Hopkinton, MA, USA), with an open emission filter, binning of 4, and f-stop 1, and a 1-min exposure time. The resultant photons emitted from the live cells were quantified using Living Image® software (version 4.3, Caliper Life Sciences, Inc.). Monitoring bioluminescence allows assessment of the kinetics of cellular viability as there is a tight correlation between photon count imaging and viable counts (Kadurugamuwa et al., [2003]).

The test system of a further data set is S. aureus ATCC 29213. Kind of data set: microbe, parasite or virus in culture. The note with it: S. aureus ATCC 29213, serial passaging at sub-MIC, duplicate. The source says:
(§3) The development of resistance was confirmed if the microorganism started growing at continuously higher concentrations. […] Evaluations were done in duplicate.

Data set [2] deals with Gentamicin resistant P. aeruginosa from passage 30. Particulars: gentamicin resistant P. aeruginosa from passage 30 (gentamicin MIC 512 μg/mL).
Description: as §3

The subject of data set [3] is clindamycin resistant S. aureus from passage 30.
Description: as §3

For data set [4] the following is noted: statement in discussion.

What is called MIC is the least concentration at which growth counts as inhibited. Higher therefore signals a need for much substance.

≈ marks a conversion by molar mass, not a printed value. Where a SMILES comes first, the peptide text is derived from it. Bridges are numbered along the chain shown (N, C = ends).

`CC[C@H](C)[C@@H]1NC(=O)CNC(=O)[C@H](CCCCN)NC(=O)[C@H](Cc2ccc(O)cc2)NC(=O)[C@@H]2CSSC[C@H](NC1=O)C(=O)N[C@@H](Cc1ccccc1)C(=O)N[C@@H](CCCCN)C(=O)N[C@@H](CCCCN)C(=O)N[C@H](C(=O)N[C@@H](CCCCN)C(N)=O)CSSC[C@H](NC(=O)[C@H](Cc1ccccc1)NC(=O)[C@@H](N)CCCNC(=N)N)C(=O)N[C@@H](Cc1c[nH]c3ccccc13)C(=O)N[C@@H](CCCCN)C(=O)N[C@@H](C(C)C)C(=O)N2` [RP557] (H-RFCWKVCYKGICFKKCK-NH2; disulfide 3-16, 7-12): the “Minimum Inhibitory Concentration (MIC)” value was 4.0 [8] μM in the data set with A. baumannii 6043; 4.0 [8] μM in the data set on A. baumannii 6838; 8.0 [16] μM in the data set with A. baumannii ATCC 17978; 2.0 [4] μM in the data set with P. aeruginosa 6186; 2.0 [4] μM in the data set on P. aeruginosa ATCC 19660; 2.0 [4] μM in the data set on P. aeruginosa ATCC 27853. Further, the Keratinocyte cell killing entry in data set [1] (8 h incubation) is “no cell killing observed”. For the same compound, in data set [1] (8 h), the Keratinocyte viability entry was “greater than 80%”. Moreover, the “MIC on Passage #0 and Passage #1” value in the data set on S. aureus ATCC 29213 is 2 µg/mL (≈ 0.936 µM). For the same compound, in the data set on S. aureus ATCC 29213, the “MIC on Passage #30” value worked out at 32 µg/mL (≈ 15 µM). For the same compound, the MIC in data set [2] amounted to 4 µg/mL (≈ 1.87 µM); in data set [3] it was 2 µg/mL (≈ 0.936 µM). In data set [4], the Water solubility entry is given as “water-soluble”.

These data come from publication PMC6667648 (Frontiers in Microbiology, 2019).
